{"source": "patent US20210238225A1", "about": "“PEPTIDOMIMETIC INHIBITORS OF THE PEPTIDYL-PROLYL CIS/TRANS ISOMERASE (PIN1)” (DANA-FARBER CANCER INSTITUTE, INC., priority 2018, published 2021)", "note": "Non-standard residues stand in square brackets, D forms with d. Residues, ends and D or L forms follow the SMILES beside them. *: point of attachment. Phe(F5) = N[C@@H](Cc1c(F)c(F)c(F)c(F)c1F)C(=O)O; Phe(3,5-F2) = N[C@@H](Cc1cc(F)cc(F)c1)C(=O)O; Ala(4-thiazolyl) = N[C@@H](Cc1cscn1)C(=O)O; Phe(2-Br) = N[C@@H](Cc1ccccc1Br)C(=O)O; Phe(4-F) = N[C@@H](Cc1ccc(F)cc1)C(=O)O; Bta = N[C@@H](Cc1csc2ccccc12)C(=O)O; NH(4-Me-benzyl) = Cc1ccc(CN*)cc1; NMeF = CN[C@@H](Cc1ccccc1)C(=O)O; hPhe = N[C@@H](CCc1ccccc1)C(=O)O; 3Thi = N[C@@H](Cc1ccsc1)C(=O)O; Cit = NC(=O)NCCC[C@H](N)C(=O)O; Pip = O=C(O)[C@@H]1CCCCN1; Piperidide = C1CCN(*)CC1; Acryloyl = C=CC(=O)*; NHcBu = C1CC(N*)C1; NHtBu = CC(C)(C)N*; X6 = CC(Cl)C(=O)*; ClAc = O=C(CCl)*"}
{"biological_target": "Pin1 (GST-Pin1) (Homo sapiens, UniProt Q13526)", "sequence (Q13526 whole entry)": "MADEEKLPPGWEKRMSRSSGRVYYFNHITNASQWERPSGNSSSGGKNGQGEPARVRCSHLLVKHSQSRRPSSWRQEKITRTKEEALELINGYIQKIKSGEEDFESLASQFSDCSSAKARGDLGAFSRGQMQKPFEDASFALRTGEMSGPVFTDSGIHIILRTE", "assay": "Fluorescence polarization (FP) assay, binding to Pin1", "conditions": "Ki, μM (FP Assay), competition with fluorescein-labeled peptide probe; 12 hours pre-incubation at 4° C.; Kenakin Ki equation", "units": {"Ki": "µM"}}
{"smiles": "COC(=O)CC[C@H](NC(=O)CCl)C(=O)N1CCCC[C@H]1C(=O)N[C@@H](Cc1csc2ccccc12)C(=O)N[C@@H](CCCNC(N)=O)C(=O)NCc1ccc(C)cc1", "note": "[Compound 11-21, Methyl (S)-5-((S)-2-(((S)-3-(benzo[&]thiophen-3-yl)-1-(((S)-1-((4-methylbenzyl)amino)-1-oxo-5-ureidopentan-2-yl)amino)-1-oxopropan-2-yl)carbamoyl)piperidin-1-yl)-4-(2-chloroacetamido)-5-oxopentanoate] (ClAc-E(OMe)[Pip][Bta][Cit]-{NH(4-Me-benzyl)})", "Ki": 0.015}
{"smiles": "COC(=O)CC[C@H](NC(=O)CCl)C(=O)N1CCCC[C@H]1C(=O)N[C@@H](Cc1csc2ccccc12)C(=O)N[C@@H](Cc1ccc(F)cc1)C(=O)NCc1ccc(C)cc1", "note": "[Compound 11-22, Methyl (S)-5-((S)-2-(((S)-3-(benzo[b]thiophen-3-yl)-1-(((S)-3-(4-fluorophenyl)-1-((4-methylbenzyl)amino)-1-oxopropan-2-yl)amino)-1-oxopropan-2-yl)carbamoyl)piperidin-1-yl)-4-(2-chloroacetamido)-5-oxopentanoate] (ClAc-E(OMe)[Pip][Bta][Phe(4-F)]-{NH(4-Me-benzyl)})", "Ki": "> 10"}
{"smiles": "COC(=O)CC[C@H](NC(=O)CCl)C(=O)N1CCCC[C@H]1C(=O)N[C@@H](Cc1c[nH]c2ccccc12)C(=O)N[C@@H](Cc1cc(F)cc(F)c1)C(=O)NCc1ccc(C)cc1", "note": "[Compound 11-24, Methyl (S)-4-(2-chloroacetamido)-5-((S)-2-(((S)-1-(((S)-3-(3,5-difluorophenyl)-1-((4-methyl-benzyl)amino)-1-oxopropan-2-yl)amino)-3-(1H-indol-3-yl)-1-oxopropan-2-yl)carbamoyl)piperidin-1-yl)-5-oxopentanoate] (ClAc-E(OMe)[Pip]W[Phe(3,5-F2)]-{NH(4-Me-benzyl)})", "Ki": "> 10"}
{"smiles": "COC(=O)CC[C@H](NC(=O)CCl)C(=O)N1CCCC[C@H]1C(=O)N[C@@H](Cc1c[nH]c2ccccc12)C(=O)N[C@@H](Cc1c(F)c(F)c(F)c(F)c1F)C(=O)NCc1ccc(C)cc1", "note": "[Compound 11-25, Methyl (S)-5-((S)-2-(((S)-3-(1H-indol-3-yl)-1-(((S)-1-((4-methylbenzyl)amino)-1-oxo-3-(perfluoro-phenyl)propan-2-yl)amino)-1-oxopropan-2-yl)carbamoyl)piperidin-1-yl)-4-(2-chloroacetamido)-5-oxopentanoate] (ClAc-E(OMe)[Pip]W[Phe(F5)]-{NH(4-Me-benzyl)})", "Ki": "> 10"}
{"smiles": "COC(=O)CC[C@H](NC(=O)CCl)C(=O)N1CCCC[C@H]1C(=O)N[C@@H](Cc1c[nH]c2ccccc12)C(=O)N[C@@H](Cc1ccccc1Br)C(=O)NCc1ccc(C)cc1", "note": "[Compound 11-27, Methyl (S)-5-((S)-2-(((S)-1-(((S)-3-(2-bromophenyl)-1-((4-methylbenzyl)amino)-1-oxopropan-2-yl)amino)-3-(1H-indol-3-yl)-1-oxopropan-2-yl)carbamoyl)piperidin-1-yl)-4-(2-chloroacetamido)-5-oxopentanoate] (ClAc-E(OMe)[Pip]W[Phe(2-Br)]-{NH(4-Me-benzyl)})", "Ki": "> 10"}
{"smiles": "COC(=O)CC[C@H](NC(=O)CCl)C(=O)N1CCCC[C@H]1C(=O)N[C@@H](Cc1c[nH]c2ccccc12)C(=O)N[C@@H](Cc1ccsc1)C(=O)NCc1ccc(C)cc1", "note": "[Compound 11-29, Methyl (S)-5-((S)-2-(((S)-3-(1H-indol-3-yl)-1-(((S)-1-((4-methylbenzyl)amino)-1-oxo-3-(thiophen-3-yl)propan-2-yl)amino)-1-oxopropan-2-yl)carbamoyl)piperidin-1-yl)-4-(2-chloroacetamido)-5-oxopentanoate] (ClAc-E(OMe)[Pip]W[3Thi]-{NH(4-Me-benzyl)})", "Ki": 1.01}
{"smiles": "NC(=O)NCCC[C@H](NC(=O)[C@H](Cc1c[nH]c2ccccc12)NC(=O)[C@@H]1CCCCN1C(=O)[C@H](CCc1ccccc1)NC(=O)CCl)C(=O)N1CCCCC1", "note": "[Compound 11-40, (S)—N—((S)-3-(1H-Indol-3-yl)-1-oxo-1-(((S)-1-oxo-1-(piperidin-1-yl)-5-ureidopentan-2-yl)amino)propan-2-yl)-1-((S)-2-(2-chloroacetamido)-4-phenylbutanoyl)piperidine-2-carboxamide] (ClAc-[hPhe][Pip]W[Cit]-Piperidide)", "Ki": 0.087}
{"biological_target": "Pin1 (GST-Pin1) (Homo sapiens, UniProt Q13526)", "assay": "Fluorescence polarization (FP) assay, binding to Pin1", "conditions": "competition with fluorescein-labeled peptide probe; 12 hours pre-incubation at 4° C.; Kenakin Ki equation; read-out: Ki, μM (FP Assay)", "units": {"Ki": "µM"}}
{"smiles": "COC(=O)CC[C@H](NC(C)=O)C(=O)N1CCCC[C@H]1C(=O)N[C@@H](Cc1c[nH]c2ccccc12)C(=O)N[C@@H](Cc1ccc(F)cc1)C(=O)NCc1ccc(C)cc1", "note": "[Compound 11-30, Methyl (S)-4-acetamido-5-((S)-2-(((S)-1-(((S)-3-(4-fluorophenyl)-1-((4-methylbenzyl)-amino)-1-oxopropan-2-yl)amino)-3-(1H-indol-3-yl)-1-oxopropan-2-yl)carbamoyl)piperidin-1-yl)-5-oxopentanoate] (Ac-E(OMe)[Pip]W[Phe(4-F)]-{NH(4-Me-benzyl)})", "Ki": "> 10"}
{"smiles": "CC(C)(C)NC(=O)[C@H](CCCNC(N)=O)NC(=O)[C@H](Cc1c[nH]c2ccccc12)NC(=O)[C@@H]1CCCCN1C(=O)[C@H](Cc1ccccc1)NC(=O)CCl", "note": "[Compound 11-31, (S)—N—((S)-1-(((S)-1-(tert-Butylamino)-1-oxo-5-ureidopentan-2-yl)amino)-3-(1H-indol-3-yl)-1-oxopropan-2-yl)-1-((2-chloroacetyl)-L-phenylalanyl)piperidine-2-carboxamide] (ClAc-F[Pip]W[Cit]-NHtBu)", "Ki": 0.023}
{"smiles": "Cc1ccc(CNC(=O)[C@H](Cc2cscn2)NC(=O)[C@H](Cc2c[nH]c3ccccc23)NC(=O)[C@@H]2CCCCN2C(=O)[C@H](Cc2ccccc2)NC(=O)CCl)cc1", "note": "[Compound 11-32, (S)—N—((S)-3-(1H-Indol-3-yl)-1-(((S)-1-((4-methylbenzyl)amino)-1-oxo-3-(thiazol-4-yl)propan-2-yl)amino)-1-oxopropan-2-yl)-1-((2-chloroacetyl)-L-phenylalanyl)piperidine-2-carboxamide] (ClAc-F[Pip]W[Ala(4-thiazolyl)]-{NH(4-Me-benzyl)})", "Ki": 0.121}
{"smiles": "Cc1ccc(CNC(=O)[C@H](CCCNC(N)=O)NC(=O)[C@H](Cc2csc3ccccc23)NC(=O)[C@@H]2CCCCN2C(=O)[C@H](Cc2ccccc2)NC(=O)CCl)cc1", "note": "[Compound 11-33, (S)—N—((S)-3-(benzo[6]thiophen-3-yl)-1-(((S)-1-((4-methylbenzyl)amino)-1-oxo-5-ureidopentan-2-yl)amino)-1-oxopropan-2-yl)-1-((2-chloroacetyl)-L-phenylalanyl)-piperidine-2-carboxamide] (ClAc-F[Pip][Bta][Cit]-{NH(4-Me-benzyl)})", "Ki": 0.028}
{"smiles": "Cc1ccc(CNC(=O)[C@H](CCCNC(N)=O)NC(=O)[C@H](Cc2c[nH]c3ccccc23)NC(=O)[C@@H]2CCCCN2C(=O)[C@H](Cc2ccccc2)NC(=O)C(C)Cl)cc1", "note": "(stereo partly drawn) [Compound 11-34, (2S)—N—((S)-3-(1H-indol-3-yl)-1-(((S)-1-((4-methylbenzyl)amino)-1-oxo-5-ureidopentan-2-yl)amino)-1-oxopropan-2-yl)-1-((2-chloropropanoyl)-L-phenylalanyl)piperidine-2-carboxamide] (X6-F[Pip]W[Cit]-{NH(4-Me-benzyl)})", "Ki": "> 10"}
{"smiles": "C=CC(=O)N[C@@H](Cc1ccccc1)C(=O)N1CCCC[C@H]1C(=O)N[C@@H](Cc1c[nH]c2ccccc12)C(=O)N[C@@H](CCCNC(N)=O)C(=O)NCc1ccc(C)cc1", "note": "[Compound 11-35, (S)—N—((S)-3-(1H-indol-3-yl)-1-(((S)-1-((4-methylbenzyl)amino)-1-oxo-5-ureidopentan-2-yl)amino)-1-oxopropan-2-yl)-1-(acryloyl-L-phenylalanyl)piperidine-2-carboxamide] (Acryloyl-F[Pip]W[Cit]-{NH(4-Me-benzyl)})", "Ki": "> 10"}
{"smiles": "CC(=O)N[C@@H](Cc1ccccc1)C(=O)N1CCCC[C@H]1C(=O)N[C@@H](Cc1c[nH]c2ccccc12)C(=O)N[C@@H](CCCNC(N)=O)C(=O)NCc1ccc(C)cc1", "note": "[Compound 11-36, (S)—N—((S)-3-(1H-Indol-3-yl)-1-(((S)-1-((4-methylbenzyl)amino)-1-oxo-5-ureidopentan-2-yl)amino)-1-oxopropan-2-yl)-1-(acetyl-L-phenylalanyl)piperidine-2-carboxamide] (Ac-F[Pip]W[Cit]-{NH(4-Me-benzyl)})", "Ki": "> 10"}
{"smiles": "NC(=O)NCCC[C@H](NC(=O)[C@H](Cc1c[nH]c2ccccc12)NC(=O)[C@@H]1CCCCN1C(=O)[C@H](Cc1ccccc1)NC(=O)CCl)C(=O)NC1CCC1", "note": "[Compound 11-37, (S)-1-((2-Chloroacetyl)-L-phenylalanyl)-N—((S)-1-(((S)-1-(cyclobutylamino)-1-oxo-5-ureidopentan-2-yl)amino)-3-(1H-indol-3-yl)-1-oxopropan-2-yl)piperidine-2-carboxamide] (ClAc-F[Pip]W[Cit]-NHcBu)", "Ki": 0.026}
{"smiles": "O=C(CCl)N[C@@H](Cc1ccccc1)C(=O)N1CCCC[C@H]1C(=O)N[C@@H](Cc1c[nH]c2ccccc12)C(=O)N[C@@H](Cc1ccccc1)C(=O)N1CCCCC1", "note": "[Compound 11-41, (S)—N—((S)-3-(1H-Indol-3-yl)-1-oxo-1-(((S)-1-oxo-3-phenyl-1-(piperidin-1-yl)propan-2-yl)amino)propan-2-yl)-1-((2-chloroacetyl)-L-phenylalanyl)piperidine-2-carboxamide] (ClAc-F[Pip]WF-Piperidide)", "Ki": 0.151}
{"smiles": "CN(C(=O)CCl)[C@@H](Cc1ccccc1)C(=O)N1CCCC[C@H]1C(=O)N[C@@H](Cc1csc2ccccc12)C(=O)N[C@@H](CCCNC(N)=O)C(=O)N1CCCCC1", "note": "[Compound 11-42, (S)—N—((S)-3-(Benzo[6]thiophen-3-yl)-1-oxo-1-(((S)-1-oxo-1-(piperidin-1-yl)-5-ureidopentan-2-yl)amino)propan-2-yl)-1-(N-(2-chloroacetyl)-N-methyl-L-phenylalanyl)piperidine-2-carboxamide] (ClAc-[NMeF][Pip][Bta][Cit]-Piperidide)", "Ki": 0.109}
